Data on 27 compounds can be found in patent US8044052B2, “Biaryl ether urea compounds” (Pfizer Inc., priority 2006, dated 2011).

The target of the assay is T1, Human FAAH (Homo sapiens, UniProt O00519).
T1 construct: made in house
T1 sequence (O00519 1-579): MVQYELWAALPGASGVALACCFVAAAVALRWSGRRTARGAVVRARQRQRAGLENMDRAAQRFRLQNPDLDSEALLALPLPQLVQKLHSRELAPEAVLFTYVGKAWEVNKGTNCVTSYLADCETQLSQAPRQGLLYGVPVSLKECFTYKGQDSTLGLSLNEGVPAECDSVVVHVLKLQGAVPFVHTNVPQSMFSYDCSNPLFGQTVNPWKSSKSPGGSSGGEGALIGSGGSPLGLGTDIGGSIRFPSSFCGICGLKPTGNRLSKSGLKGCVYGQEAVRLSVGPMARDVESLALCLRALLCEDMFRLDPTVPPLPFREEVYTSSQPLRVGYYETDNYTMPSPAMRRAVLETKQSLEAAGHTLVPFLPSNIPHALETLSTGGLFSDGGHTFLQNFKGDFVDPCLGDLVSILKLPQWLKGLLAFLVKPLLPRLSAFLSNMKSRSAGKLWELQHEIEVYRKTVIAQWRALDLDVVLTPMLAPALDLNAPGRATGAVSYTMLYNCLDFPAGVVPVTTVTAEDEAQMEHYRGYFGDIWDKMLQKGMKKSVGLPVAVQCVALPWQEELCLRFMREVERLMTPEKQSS
Kind of assay: FAAH assay (glutamate dehydrogenase-coupled, oleamide substrate, absorbance at 340 nm). To be noted: irreversible inhibition, 1-4 nM FAAH, pH 7.4, 30° C., 90 min; for kinact/KI: read-out: hFAAH kinact/Ki. Type of assay: biochemical. On the procedure:
The FAAH assay was carried out in 384-well clear polystyrene plates in a total volume of 50 μl per well. All percents are by volume. To each well, was placed the reaction mixture (40 μl) containing 1-4 nM FAAH, 50 mM NaPi, pH 7.4, 3 mM α-ketoglutarate, 0.15 mM NADH, 7.5 U/ml glutamate dehydrogenase, 2 mM ADP, 1 mM EDTA, and 0.1% Triton X-100 (The concentration shown for each component is the final concentration in the assay). […] This was immediately followed by the addition of 5 μl oleamide (500 μM) dissolved in 75% EtOH/25% DMSO and the reaction mixture was mixed for 1.5 min. The final concentrations of DMSO and EtOH in the assay were each 7.5%.
Initial velocity data (V) were obtained from the slopes of the initial progressive curves. They were plotted as a function of substrate concentration and fit to the Michaelis-Menten equation (1) using Prism (GraphPad Software, Inc., San Diego, Calif.) software to obtain Km and Vmax values.
To obtain potencies of irreversible inhibitors, progressive curves consistent with first order inhibition kinetics (two-step irreversible inhibition mechanism) were fit to equation (2) by nonlinear least squares regressions to determine kobs values at each inhibitor concentration, where [P]t is the absorbance at time t, V0 is a constant related to the steady state rate of the uninhibited reaction, and kobs is the first order rate constant for enzyme inactivation. The inhibitor dissociation constant (Ki) and the first order rate
[formula] constant of enzyme inactivation at infinite inhibitor concentration (kinact) were then obtained by fitting the kobs vs. [I] curves to equation (3).

The structures appear in SMILES notation.

With `Cc1noc(C)c1NC(=O)N1CCC(=Cc2cccc(Oc3ccc(C(F)(F)F)cn3)c2)CC1` [Example 133, N-(3,5-dimethylisoxazol-4-yl)-4-(3-{[5-(trifluoromethyl)pyridin-2-yl]oxy}benzylidene)piperidine-1-carboxamide], the kinact/KI is 36.8 M⁻¹ s⁻¹.
As to `Cc1cc(NC(=O)N2CCC(=Cc3cccc(Oc4ccc(C(F)(F)F)cn4)c3)CC2)cnc1C` [Example 131, N-(5,6-dimethylpyridin-3-yl)-4-(3-{[5-(trifluoromethyl)pyridin-2-yl]oxy}benzylidene)piperidine-1-carboxamide], the kinact/KI was determined as 1110 M⁻¹ s⁻¹.
As to `COc1ncccc1NC(=O)N1CCC(=Cc2cccc(Oc3ccc(C(F)(F)F)cn3)c2)CC1` [Example 129, N-(2-methoxypyridin-3-yl)-4-(3-{[5-(trifluoromethyl)pyridin-2-yl]oxy}benzylidene)piperidine-1-carboxamide], the kinact/KI is 1730 M⁻¹ s⁻¹.
As to `Cc1cc(C(F)(F)F)cc(Oc2cccc(C=C3CCN(C(=O)Nc4cccnn4)CC3)c2)n1` [Example 116, 4-(3-{[6-methyl-4-(trifluoromethyl)pyridin-2-yl]oxy}benzylidene)-N-pyridazin-3-ylpiperidine-1-carboxamide], the kinact/KI amounted to 40.8 M⁻¹ s⁻¹.
Consider `COc1cncc(NC(=O)N2CCC(=Cc3cccc(Oc4ccc(C(F)(F)F)cn4)c3)CC2)c1` [Example 130, N-(5-methoxypyridin-3-yl)-4-(3-{[5-(trifluoromethyl)pyridin-2-yl]oxy}benzylidene)piperidine-1-carboxamide], for which the kinact/KI came to 944 M⁻¹ s⁻¹.
On the same count and under the same terms, with `O=C(Nc1cccnn1)N1CCC(=Cc2cccc(Oc3ccc(C(=O)N4CCOCC4)cn3)c2)CC1` [Example 117, 4-(3-{[5-(morpholin-4-ylcarbonyl)pyridin-2-yl]oxy}benzylidene)-N-pyridazin-3-ylpiperidine-1-carboxamide] the figure was less than 12.4 M⁻¹ s⁻¹.
For the compound `Cc1nnc(Oc2cccc(C=C3CCN(C(=O)Nc4cccnn4)CC3)c2)c2ccccc12` [Example 119, 4-{3-[(4-methylphthalazin-1-yl)oxy]benzylidene}-N-pyridazin-3-ylpiperidine-1-carboxamide], the kinact/KI came out at 77.7 M⁻¹ s⁻¹.
Turning to `O=C(Nc1ccc2cc[nH]c2n1)N1CCC(=Cc2cccc(Oc3ccc(C(F)(F)F)cn3)c2)CC1` [Example 13, N-1H-pyrrolo[2,3-b]pyridin-6-yl-4-(3-{[5-(trifluoromethyl)pyridin-2-yl]oxy}benzylidene) piperidine-1-carboxamide], the “hFAAH kinact/Ki” value was 3870 M⁻¹ s⁻¹.
In the case of `Cc1cccc(Oc2cccc(C=C3CCN(C(=O)Nc4cccnc4)CC3)c2)n1` [Example 40, 4-(3-(6-methylpyridin-2-yloxy)benzylidene)-N-(pyridin-3-yl)piperidine-1-carboxamide], the kinact/KI amounted to 554 M⁻¹ s⁻¹.
The same measure, in the same setting: with `Cc1cccnc1Oc1cccc(C=C2CCN(C(=O)Nc3cccnn3)CC2)c1` [Example 43, 4-(3-(3-methylpyridin-2-yloxy)benzylidene)-N-(pyridazin-3-yl)piperidine-1-carboxamide] the figure was 1410 M⁻¹ s⁻¹.
The same measure, in the same setting: in the case of `C#CCCCOc1ccc(Oc2cccc(C=C3CCN(C(=O)Nc4cccnc4)CC3)c2)nc1` [Example 89, 4-(3-(5-(pent-4-ynyloxy)pyridin-2-yloxy)benzylidene)-N-(pyridin-3-yl)piperidine-1-carboxamide] it was 6450 M⁻¹ s⁻¹; in that of `O=C(Nc1cccnn1)N1CCC(=Cc2cccc(Oc3ncc4ccccc4n3)c2)CC1` [Example 105, N-pyridazin-3-yl-4-[3-(quinazolin-2-yloxy)benzylidene]piperidine-1-carboxamide], 2530 M⁻¹ s⁻¹; in that of `Cc1cccc(C(=O)NC(=O)N2CCC(=Cc3cccc(Oc4ccc(C(F)(F)F)cn4)c3)CC2)n1` [Example 16, 6-methyl-N-{[4-(3-{[5-(trifluoromethyl)pyridin-2-yl]oxy}benzylidene)piperidin-1-yl]carbonyl}pyridine-2-carboxamide], 2150 M⁻¹ s⁻¹.
The same measure, in the same setting: with `COc1ccc(Oc2cccc(C=C3CCN(C(=O)Nc4cccnn4)CC3)c2)c(C)n1` [Example 97, 4-{3-[(6-methoxy-2-methylpyridin-3-yl)oxy]benzylidene}-N-pyridazin-3-ylpiperidine-1-carboxamide] the figure was 394 M⁻¹ s⁻¹; with `O=C(Nc1ccccc1F)N1CCC(=Cc2cccc(Oc3ccc(C(F)(F)F)cn3)c2)CC1` [Example 29, 4-(3-(5-(trifluoromethyl)pyridin-2-yloxy)benzylidene)-N-(2-fluorophenyl)piperidine-1-carboxamide], 3370 M⁻¹ s⁻¹.
Take `Cc1cnc(Oc2cccc(C=C3CCN(C(=O)Nc4cccnn4)CC3)c2)nc1C(C)C` [Example 112, 4-{3-[(4-isopropyl-5-methylpyrimidin-2-yl)oxy]benzylidene}-N-pyridazin-3-ylpiperidine-1-carboxamide]: the kinact/KI came to 861 M⁻¹ s⁻¹.
Same read-out and setting: with `O=C(Nc1cccnc1)N1CCC(=C(F)c2cccc(Oc3ccc(C(F)(F)F)cn3)c2)CC1` [Example 69, 4-(fluoro(3-(5-(trifluoromethyl)pyridin-2-yloxy)phenyl)methylene)-N-(pyridin-3-yl)piperidine-1-carboxamide] the figure was 2300 M⁻¹ s⁻¹.
The same measure, in the same setting: in the case of `O=C(Nc1ccc(Cl)nn1)N1CCC(=Cc2cccc(Oc3ccc(C(F)(F)F)cn3)c2)CC1` [Example 84, N-(6-chloropyridazin-3-yl)-4-(3-{[5-(trifluoromethyl)pyridin-2-yl]oxy}benzylidene)piperidine-1-carboxamide] it was 5590 M⁻¹ s⁻¹; in that of `O=C(Nc1cccnn1)N1CCC(=Cc2cccc(Oc3ncc4cccnc4n3)c2)CC1` [Example 102, N-pyridazin-3-yl-4-[3-(pyrido[2,3-d]pyrimidin-2-yloxy)benzylidene]piperidine-1-carboxamide], 1390 M⁻¹ s⁻¹.
Still for that read-out and setting: with `CC(=C1CCN(C(=O)Nc2cccnc2)CC1)c1cccc(Oc2ccc(C(F)(F)F)cn2)c1` [Example 67, N-(pyridin-3-yl)-4-(1-(3-(5-(trifluoromethyl)pyridin-2-yloxy)phenyl)ethylidene)piperidine-1-carboxamide] the figure was 5980 M⁻¹ s⁻¹; with `CCCc1cnc(Oc2cccc(C=C3CCN(C(=O)Nc4cccnn4)CC3)c2)nc1` [Example 111, 4-{3-[(5-propylpyrimidin-2-yl)oxy]benzylidene}-N-pyridazin-3-ylpiperidine-1-carboxamide], 4240 M⁻¹ s⁻¹.
`Cc1ccc(NC(=O)N2CCC(=Cc3cccc(Oc4ccc(C(F)(F)F)cn4)c3)CC2)cn1` [Example 3, N-(6-methylpyridin-3-yl)-4-(3-{[5-(trifluoromethyl)pyridin-2-yl]oxy}benzylidene)piperidine-1-carboxamide]: the kinact/KI came to 7800 M⁻¹ s⁻¹.
Consider `O=C(Nc1cccnn1)N1CCC(=Cc2cccc(Oc3cnccn3)c2)CC1` [Example 123, 4-[3-(pyrazin-2-yloxy)benzylidene]-N-pyridazin-3-ylpiperidine-1-carboxamide], for which the kinact/KI turned out to be 203 M⁻¹ s⁻¹.
Same read-out and setting: in the case of `O=C(Nc1ccccc1)N1CCC(=Cc2cccc(Oc3ccc(C(F)(F)F)cn3)c2)CC1` [Example 10, N-phenyl-4-(3-{[5-(trifluoromethyl)pyridin-2-yl]oxy}benzylidene)piperidine-1-carboxamide] it was 3070 M⁻¹ s⁻¹; in that of `COc1ccc(NC(=O)N2CCC(=C(F)c3cccc(Oc4ccc(C(F)(F)F)cn4)c3)CC2)cn1` [Example 71, 4-(fluoro(3-(5-(trifluoromethyl)pyridin-2-yloxy)phenyl)methylene)-N-(6-methoxypyridin-3-yl)piperidine-1-carboxamide], 777 M⁻¹ s⁻¹.
The same measure, in the same setting: with `Cc1ccc(C=C2CCN(C(=O)Nc3cccnc3)CC2)cc1Oc1ccc(C(F)(F)F)cn1` [Example 60, 4-(4-methyl-3-(5-(trifluoromethyl)pyridin-2-yloxy)benzylidene)-N-(pyridin-3-yl)piperidine-1-carboxamide] the figure was 1580 M⁻¹ s⁻¹; with `Cc1cc(NC(=O)N2CCC(=Cc3cccc(Oc4ccc(C(F)(F)F)cn4)c3)CC2)n[nH]1` [Example 139, N-(5-methyl-1H-pyrazol-3-yl)-4-(3-{[5-(trifluoromethyl)pyridin-2-yl]oxy}benzylidene)piperidine-1-carboxamide], 306 M⁻¹ s⁻¹.
